Data on twelve molecules can be found in patent publication US6472424B1, “Stabilized antimicrobial compositions containing halopropynyl compounds and benzylidene camphors” (Troy Technology Corporation, Inc., priority 2000, dated 2002).

The series can be described thus: Light-induced yellowing of IPBC-containing white test paint film after UV exposure. The class given is physicochemical. To be noted: for effectiveness of the UV absorber in inhibiting degradation/yellowing of the IPBC: same test, assessment in words compared to the blank; for Δb value (difference in yellowing between blank paint and candidate paint sample): styrenated acrylic white house paint, IPBC 0.3%, formulation 20% IPBC / 40% UV absorber / 40% N-methyl pyrrolidone, paint film exposed to 340 nm UV radiation for four hours. Here is the method:
In the following examples a styrenated acrylic white house paint was used as the test medium to measure the effect of sunlight on the degradation of IPBC in various IPBC-containing compositions. The test paint composition was prepared by adding ingredients 2 through 6 slowly to a mixer containing water (ingredient 1). After mixing the composition for about 10 minutes, ingredients 7 through 11 were added, and mixing was continued until a smooth dispersion was obtained. Then the final two ingredients were added. Additional water can be added to obtain a desired viscosity.
In the following examples, a number of liquid formulations were prepared, each containing (1) 20% by weight IPBC (Troysan ® Polyphase® P-100), (2) 40% by weight of one of the UV absorbers indicated in each example which follows, and (3) 40% by weight of N-methyl pyrrolidone as a liquid vehicle. Each formulation was then incorporated into the white test paint by mixing in an amount sufficient to provide a test paint having IPBC present at a level of 0.3%. The paint formulations containing IPBC and UV absorbers were then applied on a Leneta chart with help of a 3 mil Bird type applicator. The paint film was allowed to dry for 10-15 minutes and then sprayed with a clear non-yellowing varnish (-3 mils), namely, Kamar Varnish 1312. The varnish was obtained from Krylon Products Group, The Specialty Division, Division of Sherwin-Williams Company, Ohio. The object of the varnish was to trap any of the chromophores formed during subsequent UV light exposure and to assure a short and reproducible test for accessing light-induced yellowing.
The paint film thus produced was exposed to 340 nm UV radiation for four hours and the yellowing was measured by Microflash 200D or Byk Handy Color measurement device. The difference in yellowing between a blank (the white test paint without fungicide) and the candidate paint sample, Δb, was recorded and used as the response for each test.

As to `Cc1ccccc1C=C1C(=O)C2(C)CCC1C2(C)C` (stereo not drawn) [3-(2-methylbenzylidene)camphor], the “effectiveness of the UV absorber in inhibiting degradation/yellowing of the IPBC” value was “reasonably effective”; the “Δb value (difference in yellowing between blank paint and candidate paint sample)” value worked out at 3.4.
Take `CC12CCC(C(=Cc3ccc4c(c3)OCCO4)C1=O)C2(C)C` (stereo not drawn) [3-(3,4-dioxoethylenebenzylidene)camphor]: the “effectiveness of the UV absorber in inhibiting degradation/yellowing of the IPBC” value is “effective in inhibiting degradation of the IPBC”; the “Δb value (difference in yellowing between blank paint and candidate paint sample)” value was 2.4.
The matching figures for `CC12CCC(C(=Cc3cccc(Cl)c3)C1=O)C2(C)C` (stereo not drawn) [3-(3-chlorobenzylidene)camphor]: “reasonably effective” and 3.3.
Regarding `Cc1cccc(C=C2C(=O)C3(C)CCC2C3(C)C)c1` (stereo not drawn) [3-(3-methylbenzylidene)camphor], the “effectiveness of the UV absorber in inhibiting degradation/yellowing of the IPBC” value is recorded as “effective in inhibiting degradation of the IPBC”; the “Δb value (difference in yellowing between blank paint and candidate paint sample)” value was 2.7.
Consider `CC12CCC(C(=Cc3ccc(Br)cc3)C1=O)C2(C)C` (stereo not drawn) [3-(4-bromobenzylidene)camphor], for which the “effectiveness of the UV absorber in inhibiting degradation/yellowing of the IPBC” value is reported as “reasonably effective”; the “Δb value (difference in yellowing between blank paint and candidate paint sample)” value is listed as 3.6.
The corresponding values for `CCCCOc1ccc(C=C2C(=O)C3(C)CCC2C3(C)C)cc1` (stereo not drawn) [3-(4-butoxybenzylidene)camphor] are “very effective” and 1.8.
The matching figures for `CCOc1ccc(C=C2C(=O)C3(C)CCC2C3(C)C)cc1` (stereo not drawn) [3-(4-ethoxybenzylidene)camphor]: “very effective” and 1.3.
The matching figures for `CC(C)c1ccc(C=C2C(=O)C3(C)CCC2C3(C)C)cc1` (stereo not drawn) [3-(4-isopropylbenzylidene)camphor]: “reasonably effective” and 3.5.
Take `COc1ccc(C=C2C(=O)C3(C)CCC2C3(C)C)cc1` (stereo not drawn) [3-(4-methoxybenzylidene)camphor]: the “effectiveness of the UV absorber in inhibiting degradation/yellowing of the IPBC” value was “very effective”; the “Δb value (difference in yellowing between blank paint and candidate paint sample)” value amounted to 1.3.
The corresponding values for `Cc1ccc(C=C2C(=O)C3(C)CCC2C3(C)C)cc1` (stereo not drawn) [3-(4-methylbenzylidene)camphor] are “effective in inhibiting degradation of the IPBC” and 2.5.
The matching figures for `CCCCNC(=O)OCC#CI` [IPBC, 3-iodo-2-propynyl butyl carbamate, reference compound]: “a significant yellow color develops” and 7.1.
The corresponding values for `CC12CCC(C(=Cc3ccccc3)C1=O)C2(C)C` (stereo not drawn) [benzylidenecamphor] are “effective in inhibiting degradation of the IPBC” and 2.8.
